Experimental data taken from PubChem BioAssay (NCI).
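Dose response: 5 concentrations. Exposure: 48 h. Format: 96-well plates. Endpoint: linear interpolation; highest concentration if not reached. At the GI50, growth is halved. TGI denotes the concentration required for complete inhibition of growth.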

What was measured:
Test in all cases: NCI-60 cell line screen, 48 h
MALME-3M melanoma = system: MALME-3M melanoma
BT-549 breast = system: BT-549 breast
SR leukemia = system: SR leukemia
UACC-62 melanoma = system: UACC-62 melanoma
OVCAR-8 ovarian = system: OVCAR-8 ovarian
ACHN renal = system: ACHN renal
HOP-62 NSCLC = system: HOP-62 NSCLC
NCI-H226 lung = system: NCI-H226 lung
MOLT-4 leukemia = system: MOLT-4 leukemia
CAKI-1 renal = system: CAKI-1 renal
CCRF-CEM leukemia = system: CCRF-CEM leukemia
UACC-257 melanoma = system: UACC-257 melanoma
TK-10 renal = system: TK-10 renal
SK-OV-3 ovarian = system: SK-OV-3 ovarian
SW-620 colon = system: SW-620 colon
HCT-116 colon = system: HCT-116 colon
OVCAR-5 ovarian = system: OVCAR-5 ovarian
HOP-92 NSCLC = system: HOP-92 NSCLC
LOX IMVI melanoma = system: LOX IMVI melanoma
SNB-19 CNS = system: SNB-19 CNS
OVCAR-4 ovarian = system: OVCAR-4 ovarian
T-47D breast = system: T-47D breast
SK-MEL-5 melanoma = system: SK-MEL-5 melanoma
NCI/ADR-RES ovarian = system: NCI/ADR-RES ovarian
MCF7 breast = system: MCF7 breast
A498 renal = system: A498 renal
SF-268 CNS = system: SF-268 CNS
A549 NSCLC = system: A549 NSCLC

SMILES: N#Cc1c(-c2ccc(F)cc2)nc(SCc2ccc(F)cc2)nc1N1CCNCC1
- GI50 (MALME-3M melanoma): 14.7 µM
- TGI (MALME-3M melanoma): 28.4 µM
- GI50 (BT-549 breast): 10.7 µM
- TGI (BT-549 breast): 23 µM
- GI50 (SR leukemia): 2.18 µM
- TGI (SR leukemia): 5.07 µM
- GI50 (UACC-62 melanoma): 15.9 µM
- TGI (UACC-62 melanoma): 29.9 µM
- GI50 (OVCAR-8 ovarian): 13.2 µM
- TGI (OVCAR-8 ovarian): 30.5 µM
- GI50 (ACHN renal): 15 µM
- TGI (ACHN renal): 28.5 µM
- GI50 (HOP-62 NSCLC): 17 µM
- TGI (HOP-62 NSCLC): 33.4 µM
- GI50 (NCI-H226 lung): 15.9 µM
- TGI (NCI-H226 lung): 35.7 µM
- GI50 (MOLT-4 leukemia): 10.5 µM
- TGI (MOLT-4 leukemia): 26 µM
- GI50 (CAKI-1 renal): 15.3 µM
- TGI (CAKI-1 renal): 29 µM
- GI50 (CCRF-CEM leukemia): 14.8 µM
- TGI (CCRF-CEM leukemia): 33.6 µM
- GI50 (UACC-257 melanoma): 14.8 µM
- TGI (UACC-257 melanoma): 28.7 µM
- GI50 (TK-10 renal): 15 µM
- TGI (TK-10 renal): 29.7 µM
- GI50 (SK-OV-3 ovarian): 16 µM
- TGI (SK-OV-3 ovarian): 29.8 µM
- GI50 (SW-620 colon): 5.97 µM
- TGI (SW-620 colon): 19.2 µM
- GI50 (HCT-116 colon): 4.15 µM
- TGI (HCT-116 colon): 15.6 µM
- GI50 (OVCAR-5 ovarian): 14.5 µM
- TGI (OVCAR-5 ovarian): 28 µM
- GI50 (HOP-92 NSCLC): 7.64 µM
- TGI (HOP-92 NSCLC): 22.1 µM
- GI50 (LOX IMVI melanoma): 2.28 µM
- TGI (LOX IMVI melanoma): 5.69 µM
- GI50 (SNB-19 CNS): 14.9 µM
- TGI (SNB-19 CNS): 29.4 µM
- GI50 (OVCAR-4 ovarian): 16.5 µM
- TGI (OVCAR-4 ovarian): 33.6 µM
- GI50 (T-47D breast): 13.8 µM
- TGI (T-47D breast): 30.4 µM
- GI50 (SK-MEL-5 melanoma): 16.8 µM
- TGI (SK-MEL-5 melanoma): 30.5 µM
- GI50 (NCI/ADR-RES ovarian): 13.7 µM
- TGI (NCI/ADR-RES ovarian): 30.4 µM
- GI50 (MCF7 breast): 6.43 µM
- TGI (MCF7 breast): 20.2 µM
- GI50 (A498 renal): 15.3 µM
- TGI (A498 renal): 29.8 µM
- GI50 (SF-268 CNS): 14.1 µM
- TGI (SF-268 CNS): 30.9 µM
- GI50 (A549 NSCLC): 11.5 µM
